In ChEMBL document CHEMBL5537195, “Novel Covalent Probe Selectively Targeting Glutathione Peroxidase 4 In Vivo: Potential Applications in Pancreatic Cancer Therapy” (J Med Chem, 2024):
The source made the active and inactive calls. The rule behind the calls is not given here.

Experiments:
Mus musculus = experiment: In vivo target engagement at GPX4 in SCID mouse at 10 mg/kg, ip qd administered for 14 days and measured after 2 hrs by SDS-PAGE analysis; type: functional, organism-based; conditions: time 14.0 day
Homo sapiens = species on record: Homo sapiens; experiment: Binding affinity to GPX4 U46C mutant (unknown origin) incubated for 1 hr by pull-down based Western blot analysis; conditions: dose 0.2-5 µM
BXPC-3 = experiment: Antiproliferative activity against human BXPC-3 cells assessed as inhibition of cell growth incubated for 72 hrs by CCK-8 assay; type: functional, cell-based; conditions: BXPC-3, 72 h
[1] = Toxicity in NOD-SCID mouse xenografted with human ASPC1 cells assessed as body weight loss at 10 mg/kg, ip administered for once daily for 14 days; type: organism-based; conditions: in vivo, 336 h, time 14 day
[2] = Toxicity in NOD-SCID mouse xenografted with human ASPC1 cells assessed as mortality at 10 mg/kg, ip administered for once daily for 14 days; type: organism-based; conditions: in vivo, 336 h, time 14 day
[3] = target: T1, Phospholipid hydroperoxide glutathione peroxidase GPX4 (Homo sapiens) (UniProt P36969); experiment: Binding affinity to GPX4 in human ASPC1 cells at 0.2 uM incubated for 1 hr in presence of N-ethynyl-N-methyl-4-((methyl(4(trifluoromethyl)phenyl)amino)methyl)benzenesulfonamide by SDS-PAGE analysis; type: cell-based
T1 sequence (whole entry): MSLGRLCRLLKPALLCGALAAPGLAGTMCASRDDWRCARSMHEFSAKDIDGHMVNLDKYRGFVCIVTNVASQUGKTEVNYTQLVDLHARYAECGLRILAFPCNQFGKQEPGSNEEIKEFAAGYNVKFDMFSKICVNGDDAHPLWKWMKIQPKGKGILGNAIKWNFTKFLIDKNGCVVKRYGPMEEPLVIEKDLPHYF

ASPC1 [4] = experiment: Induction of ferroptosis in human ASPC1 cells assessed as reduction in cell viability incubated for 72 hrs followed by compound washout by CCK-8 assay; type: functional, cell-based; conditions: ASPC1, 72 h
[5] = target: T1, Phospholipid hydroperoxide glutathione peroxidase GPX4 (Homo sapiens); experiment: Binding affinity to GPX4 in human Capan-2 cells at 0.2 uM incubated for 1 hr by SDS-PAGE analysis; type: cell-based
ASPC1 [6] = experiment: Induction of ferroptosis in human ASPC1 cells assessed as effect on ROS level at 1 uM incubated for 3 hrs in presence of […]; type: functional, cell-based
[7] = target: T1, Phospholipid hydroperoxide glutathione peroxidase GPX4 (Homo sapiens); experiment: Binding affinity to GPX4 in human ASPC1 cells at 0.2 uM by SDS-PAGE analysis; type: cell-based; conditions: time 0.1 hrs, TDE = time-dependent effect
CFPAC-1 = experiment: Antiproliferative activity against human CFPAC-1 cells assessed as inhibition of cell growth incubated for 72 hrs by CCK-8 assay; type: functional, cell-based; conditions: CFPAC-1, 72 h
[8] = target: T1, Phospholipid hydroperoxide glutathione peroxidase GPX4 (Homo sapiens); experiment: Binding affinity to GPX4 in human ASPC1 cells assessed as thermal stability at 10 uM at 43 to 64 degreeC for 3 mins by CETSA analysis; type: cell-based
[9] = target: T1, Phospholipid hydroperoxide glutathione peroxidase GPX4 (Homo sapiens); experiment: Binding affinity to GPX4 in human HPAF-II cells at 0.2 uM incubated for 1 hr by SDS-PAGE analysis; type: cell-based
ASPC1 [10] = experiment: Induction of ferroptosis in human ASPC1 cells assessed as cell death at 2 uM in presence of Ferrostatin-1; type: functional, cell-based
ASPC1 [11] = experiment: Induction of ferroptosis in human ASPC1 cells assessed as cell death at 2 uM in presence of Z-VAD-FMK; type: functional, cell-based
[12] = target: T2, Fructose-bisphosphate aldolase A (Homo sapiens) (UniProt P04075); experiment: Binding affinity to ALDOA in human ASPC1 cells at 1 uM incubated for 5 hrs by Western blot analysis; type: cell-based
T2 sequence (whole entry): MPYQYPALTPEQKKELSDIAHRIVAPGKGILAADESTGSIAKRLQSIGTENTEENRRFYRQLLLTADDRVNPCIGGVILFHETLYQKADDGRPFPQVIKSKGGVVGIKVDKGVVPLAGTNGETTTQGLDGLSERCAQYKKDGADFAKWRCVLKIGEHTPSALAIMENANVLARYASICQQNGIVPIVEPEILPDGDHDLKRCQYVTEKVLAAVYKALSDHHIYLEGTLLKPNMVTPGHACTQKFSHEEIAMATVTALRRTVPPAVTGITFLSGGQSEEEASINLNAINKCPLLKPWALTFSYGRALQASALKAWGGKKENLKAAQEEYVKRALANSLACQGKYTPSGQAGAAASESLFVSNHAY

ASPC1 [13] = experiment: Antitumor activity against human ASPC1 cells xenografted in NOD-SCID mouse assessed as reduction in tumor weight at 10 mg/kg, ip administered for 14 days; type: functional, organism-based; conditions: time 14.0 day
NCI-H522 = experiment: Induction of ferroptosis in human NCI-H522 cells assessed as reduction in cell viability incubated for 72 hrs by CCK-8 assay; type: functional, cell-based; conditions: NCI-H522, 72 h
[14] = target: T1, Phospholipid hydroperoxide glutathione peroxidase GPX4 (Homo sapiens); experiment: Competitive binding affinity to GPX4 in human ASPC1 cells at 0.2 uM incubated for 1 hr in presence of ML162; type: cell-based
ASPC1 [15] = experiment: Antiproliferative activity against human AsPC1 cells assessed as inhibition of cell growth incubated for 72 hrs by CCK-8 assay; type: functional, cell-based; conditions: ASPC1, 72 h
[16] = target: T1, Phospholipid hydroperoxide glutathione peroxidase GPX4 (Homo sapiens); experiment: Competitive binding affinity to GPX4 in human ASPC1 cells at 0.2 uM incubated for 1 hr in presence of 4-(((4-(benzo[d]thiazol-2-yl)phenyl)(methyl)amino)methyl)-N-ethynyl-N-methylbenzenesulfonamide by immunofluorescence based confocal microscopic analysis; type: cell-based
ASPC1 [17] = experiment: Induction of ferroptosis in human ASPC1 cells assessed as decrease in intracellular GSH level at 5 uM incubated for 5 hrs in presence of […]; type: functional, cell-based
ASPC1 [18] = experiment: Induction of ferroptosis in human ASPC1 cells assessed as cell death at 2 uM in presence of Necrostatin-1; type: functional, cell-based
[19] = target: T1, Phospholipid hydroperoxide glutathione peroxidase GPX4 (Homo sapiens); experiment: Binding affinity to GPX4 in human ASPC1 cells incubated for 1 hr by SDS-PAGE analysis; type: cell-based; conditions: dose 0.02-0.2 µM
[20] = target: T1, Phospholipid hydroperoxide glutathione peroxidase GPX4 (Homo sapiens); experiment: Competitive binding affinity to GPX4 in human ASPC1 cells at 0.2 uM incubated for 1 hr in presence of ML210; type: cell-based
[21] = AUC (0 to t) in Sprague-Dawley rat at 2 mg/kg, iv measured upto 48 hrs by LC-MS/MS analysis; type: ADME, organism-based; conditions: in vivo
ASPC1 [22] = experiment: Antitumor activity against human ASPC1 cells xenografted in NOD-SCID mouse assessed as reduction in tumor volume at 10 mg/kg, ip administered for 14 days; type: functional, organism-based; conditions: time 14.0 day
ASPC1 [23] = experiment: Induction of ferroptosis in human ASPC1 cells assessed as decrease in intracellular GSH level at 5 uM incubated for 5 hrs in absence of […]; type: functional, cell-based
ASPC1 [24] = experiment: Induction of ferroptosis in human ASPC1 cells assessed as reduction in cell viability incubated for 48 hrs by CCK-8 assay; type: functional, cell-based; conditions: ASPC1, 48 h
[25] = target: Large ribosomal subunit protein eL28 (Homo sapiens) (UniProt P46779); experiment: Binding affinity to RL28 in human ASPC1 cells at 1 uM incubated for 5 hrs by Western blot analysis; type: cell-based
ASPC1 [26] = experiment: Induction of ferroptosis in human ASPC1 cells assessed as cell death at 2 uM in presence of 3-methyladenine; type: functional, cell-based
[27] = target: T1, Phospholipid hydroperoxide glutathione peroxidase GPX4 (Homo sapiens); experiment: Binding affinity to GPX4 in human MIA PaCa-2 cells at 0.2 uM incubated for 1 hr by SDS-PAGE analysis; type: cell-based

## C#CCN(Cc1ccc(S(=O)(=O)N(C)C#C)cc1)c1ccc(-c2nc3ccccc3s2)cc1
Mus musculus
  Activity: Active
Homo sapiens
  Activity: Active
BXPC-3
  IC50: 20 nM
[1]
  Activity: Non-Toxic
[2]
  Activity: Non-Toxic
[3]
  Activity: Active
ASPC1 [4]
  IC50: 29 nM
[5]
  Activity: inactive
ASPC1 [6]
  Activity: Active
[7]
  Activity: Tde
CFPAC-1
  IC50: 20 nM
[8]
  Activity: Active
[9]
  Activity: Active
ASPC1 [10]
  Activity: inactive
ASPC1 [11]
  Activity: inactive
[12]
  Activity: Active
ASPC1 [13]
  Activity: Active
NCI-H522
  IC50: 3 nM
[14]
  Activity: Active
ASPC1 [15]
  IC50: 22 nM
[16]
  Activity: inactive
ASPC1 [17]
  Activity: Active
ASPC1 [18]
  Activity: inactive
[19]
  Activity: Dose-Dependent Effect
[20]
  Activity: Active
[21]
  AUC(0-t) at 48 h: 915 ng·h/mL
ASPC1 [22]
  Activity: Active
ASPC1 [23]
  Activity: Active
ASPC1 [24]
  IC50: 26 nM
[25]
  Activity: Active
ASPC1 [26]
  Activity: inactive
[27]
  Activity: Active
